Measurements as given in ChEMBL document CHEMBL1146691, “Conformationally-flexible benzamide analogues as dopamine D3 and sigma 2 receptor ligands” (Bioorg Med Chem Lett, 2004).

Experiments:
D(3) dopamine receptor = D(3) dopamine receptor (Rattus norvegicus, UniProt P19020); experiment: biochemical
D(2) dopamine receptor = D(2) dopamine receptor (Rattus norvegicus, UniProt P61169); experiment: biochemical
D(4) dopamine receptor = molecular target: T1, D(4) dopamine receptor (Homo sapiens, UniProt P21917)
T1 sequence (P21917 whole entry): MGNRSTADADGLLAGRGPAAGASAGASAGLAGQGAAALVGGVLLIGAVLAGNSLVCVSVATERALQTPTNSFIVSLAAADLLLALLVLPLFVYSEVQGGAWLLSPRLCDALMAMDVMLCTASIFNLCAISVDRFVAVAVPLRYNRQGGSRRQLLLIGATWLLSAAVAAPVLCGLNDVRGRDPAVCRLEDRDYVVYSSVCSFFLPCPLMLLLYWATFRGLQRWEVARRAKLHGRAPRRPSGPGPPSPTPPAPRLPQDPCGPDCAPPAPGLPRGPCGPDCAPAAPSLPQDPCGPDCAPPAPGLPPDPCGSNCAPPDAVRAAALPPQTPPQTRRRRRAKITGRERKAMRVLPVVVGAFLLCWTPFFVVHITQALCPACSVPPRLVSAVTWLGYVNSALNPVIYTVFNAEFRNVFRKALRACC

Sequence of D(3) dopamine receptor (P19020 whole entry): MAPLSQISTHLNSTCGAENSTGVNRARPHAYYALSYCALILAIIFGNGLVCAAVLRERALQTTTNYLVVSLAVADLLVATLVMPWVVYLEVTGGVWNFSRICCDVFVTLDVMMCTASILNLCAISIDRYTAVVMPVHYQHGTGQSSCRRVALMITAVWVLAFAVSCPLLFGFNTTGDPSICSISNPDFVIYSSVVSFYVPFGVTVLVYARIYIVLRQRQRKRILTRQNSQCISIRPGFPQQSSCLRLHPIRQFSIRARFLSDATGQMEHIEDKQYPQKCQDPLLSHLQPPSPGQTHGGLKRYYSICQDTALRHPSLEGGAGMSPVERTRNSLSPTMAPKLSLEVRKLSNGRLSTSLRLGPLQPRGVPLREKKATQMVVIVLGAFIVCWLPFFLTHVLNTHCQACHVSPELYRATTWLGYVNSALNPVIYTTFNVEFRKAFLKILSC
Sequence of D(2) dopamine receptor (P61169 whole entry): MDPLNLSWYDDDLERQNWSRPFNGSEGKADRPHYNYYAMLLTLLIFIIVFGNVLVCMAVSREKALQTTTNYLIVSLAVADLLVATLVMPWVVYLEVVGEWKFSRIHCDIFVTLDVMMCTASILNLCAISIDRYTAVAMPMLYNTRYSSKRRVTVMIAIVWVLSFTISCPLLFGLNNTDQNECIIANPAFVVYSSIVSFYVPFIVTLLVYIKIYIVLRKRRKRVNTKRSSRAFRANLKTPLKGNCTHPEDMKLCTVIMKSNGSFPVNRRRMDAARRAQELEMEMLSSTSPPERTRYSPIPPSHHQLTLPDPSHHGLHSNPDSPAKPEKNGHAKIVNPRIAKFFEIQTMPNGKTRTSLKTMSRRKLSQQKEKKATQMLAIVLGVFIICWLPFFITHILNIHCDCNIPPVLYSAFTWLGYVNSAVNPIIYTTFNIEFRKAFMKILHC

| Ki (Sigma 2 receptor) | Ki (D(3) dopamine receptor) | Ki (D(2) dopamine receptor) | Ki (D(4) dopamine receptor) | Compound |
| --- | --- | --- | --- | --- |
| 8.2 nM |  |  |  | COc1cc2c(cc1OC)CN(CCCCNC(=O)c1cc(Br)cc(OC)c1OC)CC2 |
| 70 nM | 0.4 nM |  |  | COc1c(C(=O)NC2CCN(C3C4CC5CC(C4)CC3C5)C2)cc(Br)c2ccccc12 (stereo unspecified) |
| 13.3 nM |  |  |  | COc1cc2c(cc1OC)CN(CCNC(=O)c1cc(C)ccc1OC)CC2 |
| 47.7 nM |  |  |  | COc1c(C(=O)NCCN2CCc3ccccc3C2)cc(Br)c2ccccc12 |
| 25 nM |  |  |  | COc1c(C(=O)NC[C@H]2CCCN2C2CCCCC2)cc(Br)c2ccccc12 |
| 89.4 nM |  |  |  | COc1ccc(Br)cc1C(=O)NCCN1CCc2ccccc2C1 |
|  | 1.4 nM | 217 nM |  | O=C(NCCCCN1CCN(c2cccc(Cl)c2Cl)CC1)c1ccc2c(c1)Cc1ccccc1-2 |
| 17.6 nM |  |  |  | COc1cc2c(cc1OC)CN(CCCCNC(=O)c1cc(Br)c3ccccc3c1OC)CC2 |
| 12.4 nM |  |  |  | COc1cc2c(cc1OC)CN(CCNC(=O)c1cc(Br)ccc1OC)CC2 |
| 21.2 nM |  |  |  | COc1cc2c(cc1OC)CN(CCNC(=O)c1cc(Br)c3ccccc3c1OC)CC2 |
| 16.4 nM |  |  | 265 nM | COc1cc2c(cc1OC)CN(CCNC(=O)c1cc(Br)cc(OC)c1OC)CC2 |
|  | 3.9 nM | 33 nM |  | COc1cc2c(cc1OC)CN(Cc1ccc(-c3cc(Br)cc(OC)c3OC)[nH]1)CC2 |
|  | 1.4 nM | 89 nM |  | O=C(NCCCCN1CCN(c2cccc(Cl)c2Cl)CC1)c1cccc2c1-c1ccccc1C2=O |
| 75 nM |  |  | 800 nM | COc1cc(Br)cc(C(=O)NCCCCN2CCN(c3cccc(Cl)c3Cl)CC2)c1OC |
| 716 nM |  |  | 47.9 nM | COc1cc(Br)cc(C(=O)NCCN2CCc3ccccc3C2)c1OC |

| Compound | Ki (Sigma 2 receptor) | Ki (D(3) dopamine receptor) | Ki (D(2) dopamine receptor) | Ki (D(4) dopamine receptor) |
| --- | --- | --- | --- | --- |
| COc1c(C(=O)NCCN2CCN(c3cccc(Cl)c3Cl)CC2)cc(Br)c2ccccc12 |  | 8 nM | > 10000 nM |  |
| COc1cc(Br)cc(-c2ccc(CN3CCc4ccccc4C3)[nH]2)c1OC |  | 3.8 nM | 30 nM |  |
